# In patent EP0238178B1, “Novel derivatives of erythromycylamine” (ELI LILLY AND COMPANY, priority 1986, dated 1987):
# Where two headings read alike, the source gives them in different places.
# How the values were obtained:
# Streptococcus pyogenes = experiment: Experimental bacterial infection in mice, ED50; format: in vivo; details: Streptococcus pyogenes, two doses, dose protecting 50% of animals
# Protocol: (§1) The new derivatives of this invention have also shown in vivo antimicrobial activity against experimental bacterial infections. When two doses of test compound were administered to mice in experimental infections, the activity observed was measured as an EDso value [effective dose in mg/kg to protect 50% of the test animals: see Warren Wick, et al., J. Bacteriol. 81, 233-235 (1961)].
# Staphylococcus aureus = experiment: Experimental bacterial infection in mice, ED50; format: in vivo; details: Staphylococcus aureus, two doses, dose protecting 50% of animals
# Protocol: as §1
# Streptococcus pneumoniae = experiment: Experimental bacterial infection in mice, ED50; format: in vivo; details: Streptococcus pneumoniae, two doses, dose protecting 50% of animals
# Protocol: as §1
# [1] = test system: Staphylococcus aureus S13E; experiment: MIC, standard agar-dilution assay; format: cell-based
# [2] = test system: Streptococcus sp. group D X66; experiment: MIC, standard agar-dilution assay; format: cell-based; details: Streptococcus sp. group D X66; read-out: MIC
# [3] = test system: Streptococcus pneumoniae Park I; experiment: MIC, standard agar-dilution assay; format: cell-based; details: read-out: MIC
# [4] = test system: Staphylococcus aureus X1.1; experiment: MIC, standard agar-dilution assay; format: cell-based; details: read-out: MIC
# Escherichia coli EC14 = experiment: MIC, standard agar-dilution assay; format: cell-based; details: read-out: MIC
# [5] = test system: Staphylococcus epidermidis 222; experiment: MIC, standard agar-dilution assay; format: cell-based; details: read-out: MIC
# [6] = test system: Streptococcus pyogenes C203; experiment: MIC, standard agar-dilution assay; format: cell-based; details: read-out: MIC
# [7] = test system: Streptococcus sp. group D 2041; experiment: MIC, standard agar-dilution assay; format: cell-based; details: read-out: MIC
# [8] = test system: Haemophilus influenzae 76; experiment: MIC, standard agar-dilution assay; format: cell-based; details: Haemophilus influenzae 76, Ampicillin-resistant strain; read-out: MIC
# [9] = test system: Haemophilus influenzae C.L.; experiment: MIC, standard agar-dilution assay; format: cell-based; details: Ampicillin-sensitive strain, read-out: MIC
# [10] = sc, subcutaneous, read-out: Subcutaneous ED50
SMILES,"ED50 (Streptococcus pyogenes; po, read-out: Oral ED50)","ED50 (Staphylococcus aureus; po, read-out: Oral ED50)","ED50 (Streptococcus pneumoniae; po, read-out: Oral ED50)",MIC [1],MIC [2],MIC [3],MIC [4],MIC (Escherichia coli EC14),MIC [5],MIC [6],MIC [7],MIC [8],MIC [9],ED50 (Streptococcus pyogenes; [10]),ED50 (Staphylococcus aureus; [10]),ED50 (Streptococcus pneumoniae; [10])
CCCCCCCCCCN[C@@H]1[C@H](C)[C@@H](O)[C@@H](C)[C@@H](CC)OC(=O)[C@H](C)[C@@H](O[C@H]2C[C@@](C)(OC)[C@@H](O)[C@H](C)O2)[C@H](C)[C@@H](O[C@@H]2O[C@H](C)C[C@H](N(C)C)[C@H]2O)[C@](C)(O)C[C@H]1C [Compound 41],> 50 mg/kg,> 50 mg/kg,> 50 mg/kg,,,,,,,,,,,,,
"CC[C@H]1OC(=O)[C@H](C)[C@@H](O[C@H]2C[C@@](C)(OC)[C@@H](O)[C@H](C)O2)[C@H](C)[C@@H](O[C@@H]2O[C@H](C)C[C@H](N(C)C)[C@H]2O)[C@](C)(O)C[C@@H](C)[C@H](NCCCSC)[C@H](C)[C@@H](O)[C@]1(C)O [Compound 26, 9-Deoxo-9-[[3-(methylthio)propyl]amino]erythromycin]",7.9 mg/kg,,9.2 mg/kg,0.25 µg/mL,0.25 µg/mL,0.015 µg/mL,0.5 µg/mL,128 µg/mL,0.5 µg/mL,0.015 µg/mL,2 µg/mL,4 µg/mL,4 µg/mL,,,
"CC[C@H]1OC(=O)[C@H](C)[C@@H](O[C@H]2C[C@@](C)(OC)[C@@H](O)[C@H](C)O2)[C@H](C)[C@@H](O[C@@H]2O[C@H](C)C[C@H](N(C)C)[C@H]2O)[C@](C)(O)C[C@@H](C)[C@H](NCCCOC)[C@H](C)[C@@H](O)[C@]1(C)O [Compound 23, (9S)-9-Deoxo-9-[(3-methoxypropyl)amino]erythromycin]",13.5 mg/kg,16.4 mg/kg,15.9 mg/kg,2 µg/mL,0.25 µg/mL,0.03 µg/mL,2 µg/mL,64 µg/mL,0.5 µg/mL,0.125 µg/mL,8 µg/mL,4 µg/mL,4 µg/mL,2.1 mg/kg,3.73 mg/kg,8.3 mg/kg
"CC[C@H]1OC(=O)[C@H](C)[C@@H](O[C@H]2C[C@@](C)(OC)[C@@H](O)[C@H](C)O2)[C@H](C)[C@@H](O[C@@H]2O[C@H](C)C[C@H](N(C)C)[C@H]2O)[C@](C)(O)C[C@@H](C)[C@H](NCCCC#N)[C@H](C)[C@@H](O)[C@]1(C)O [Compound 29, 9-Deoxo-9-[(3-cyanopropyl)amino]erythromycin]",21.1 mg/kg,36.1 mg/kg,28.7 mg/kg,,,,,,,,,,,,,
"CC[C@H]1OC(=O)[C@H](C)[C@@H](O[C@H]2C[C@@](C)(OC)[C@@H](O)[C@H](C)O2)[C@H](C)[C@@H](O[C@@H]2O[C@H](C)C[C@H](N(C)C)[C@H]2O)[C@](C)(O)C[C@@H](C)[C@H](NCCCc2ccccc2)[C@H](C)[C@@H](O)[C@]1(C)O [Compound 17, (9S)-9-Deoxo-9-[(3-phenypropyl)amino]erythromycin]",14.1 mg/kg,36.9 mg/kg,17.2 mg/kg,0.5 µg/mL,0.06 µg/mL,0.015 µg/mL,1 µg/mL,128 µg/mL,0.5 µg/mL,0.015 µg/mL,2 µg/mL,2 µg/mL,2 µg/mL,,,
"CCCCCCCN[C@@H]1[C@H](C)[C@@H](O)[C@](C)(O)[C@@H](CC)OC(=O)[C@H](C)[C@@H](O[C@H]2C[C@@](C)(OC)[C@@H](O)[C@H](C)O2)[C@H](C)[C@@H](O[C@@H]2O[C@H](C)C[C@H](N(C)C)[C@H]2O)[C@](C)(O)C[C@H]1C [Compound 7, 9-Deoxo-9-(-n-heptylamino)erythromycin]",30.6 mg/kg,> 50 mg/kg,33.2 mg/kg,,0.06 µg/mL,0.015 µg/mL,0.25 µg/mL,64 µg/mL,0.25 µg/mL,0.015 µg/mL,2 µg/mL,2 µg/mL,1 µg/mL,,,
CCCN[C@@H]1[C@H](C)[C@@H](O)[C@@H](C)[C@@H](CC)OC(=O)[C@H](C)[C@@H](O[C@H]2C[C@@](C)(OC)[C@@H](O)[C@H](C)O2)[C@H](C)[C@@H](O[C@@H]2O[C@H](C)C[C@H](N(C)C)[C@H]2O)[C@](C)(O)C[C@H]1C [Compound 38],20.6 mg/kg,41 mg/kg,50 mg/kg,,,,,,,,,,,,,
CC[C@H]1OC(=O)[C@H](C)[C@@H](O[C@H]2C[C@@](C)(OC)[C@@H](O)[C@H](C)O2)[C@H](C)[C@@H](O[C@@H]2O[C@H](C)C[C@H](N(C)C)[C@H]2O)[C@](C)(O)C[C@@H](C)[C@H](NCCOCCOC)[C@H](C)[C@@H](O)[C@H]1C [Compound 49],40.9 mg/kg,> 50 mg/kg,> 56 mg/kg,,,,,,,,,,,,,
